pIC50: −log10 of the molar value. Like-named read-outs stand apart in the source and are kept apart here.
What was measured:
A2780 = test: Growth inhibition (sulforhodamine B assay), single agents and combination; format: cell-based; conditions: Homo sapiens, read-out: 50% Inhibitory Concentrations (IC50) at 72 h
Protocol: The following human ovarian carcinoma cell lines were tested: A2780 was obtained from Dr. R. F. Ozols (National Cancer Institute, Bethesda, Md., USA); IGROV-1 was obtained from Dr. J. Benard (Villejuif, France); OVCA432 was obtained from Dr. R. C. Knapp (Boston, Mass., USA); OAW42 and SKOV-3 were purchased from ATCC (Rockville, Md., USA). A2780/HPR, a 4-HPR— resistant ovarian carcinoma cell line, was obtained in our laboratory by continuous exposure of A2780 cells to increasing concentrations of 4-EPR as previously described (Appierto et al., Br. J. Cancer, 2001, 84:1528–1534; Prinetti et al., J. Biol. Chem., 2003, 278:5574–5583). Briefly, cells surviving 60 transplants in 4-HPR —containing medium (3 transplants at 1 μM, 11 transplants at 2 μM, 8 transplants at 3 μM, and 38 transplants at 5 μM) were cloned by limiting dilution. […]
For the growth inhibition assays, cells were seeded at a density of 3500 cells per well in 96 cluster tissue culture plates, and treated 24 hr after seeding with different concentrations of 4-oxo-4-HPR or 4-HPR. […] The survival of treated cells was calculated for the various drug concentrations as percentage of the survival of control cells. […]
Studies were performed to assess whether 4-oxo-4-HPR potentiates the tumor growth inhibitory effects of 4-HPR. […] The fractional survival (f) after 3 days of treatment was calculated for each experimental condition. […]

OAW42 = test: Growth inhibition (sulforhodamine B assay); format: cell-based; conditions: Homo sapiens, read-out: 50% Inhibitory Concentrations (IC50) at 72 h
Protocol: (§1) The following human ovarian carcinoma cell lines were tested: A2780 was obtained from Dr. R. F. Ozols (National Cancer Institute, Bethesda, Md., USA); IGROV-1 was obtained from Dr. J. Benard (Villejuif, France); OVCA432 was obtained from Dr. R. C. Knapp (Boston, Mass., USA); OAW42 and SKOV-3 were purchased from ATCC (Rockville, Md., USA). A2780/HPR, a 4-HPR— resistant ovarian carcinoma cell line, was obtained in our laboratory by continuous exposure of A2780 cells to increasing concentrations of 4-EPR as previously described (Appierto et al., Br. J. Cancer, 2001, 84:1528–1534; Prinetti et al., J. Biol. Chem., 2003, 278:5574–5583). Briefly, cells surviving 60 transplants in 4-HPR —containing medium (3 transplants at 1 μM, 11 transplants at 2 μM, 8 transplants at 3 μM, and 38 transplants at 5 μM) were cloned by limiting dilution. […] Therefore, A2780/HPR cells were continuously maintained in 5 μM 4-HPR and seeded without 4-HPR in all the experiments performed to test their sensitivity to 4-oxo-4-HPR.
(§2) The following human breast tumor cell lines, obtained from Dr. R. Sutherland (Garvan Institute, Sydney, Australia) were tested: T-47D, BT-20 and MCF-7. The following human neuroblastoma cell lines, purchased from ATCC, were tested: SK-N-BE, SK-N-SH, SK-N-MC, and GI-LI-N. All cell lines were grown in monolayer, in medium containing 10% fetal bovine serum (Invitrogen) in 5% CO2 at 37° C. The medium for A2780, A2780/HPR, IGROV-1, OVCA432, SKOV-3, T-47D, BT-20, MCF-7, GI-LI-N and SK-N-BE cells was RPMI 1640 (Cambrex, Verviers, Belgium) and the medium for OAW42, SK-N-MC and SK-N-SH cells was EMEM (ATCC).
(§3) For the growth inhibition assays, cells were seeded at a density of 3500 cells per well in 96 cluster tissue culture plates, and treated 24 hr after seeding with different concentrations of 4-oxo-4-HPR or 4-HPR. 4-oxo-4-HPR was dissolved in absolute ethanol and 4-HPR (obtained from Dr. J. A. Crowell —NCI Bethesda, Md., USA) was dissolved in Me2SO. […] Control cultures received the same amount of ethanol or Me2SO as the treated cultures. 72 hr after treatment cell number was estimated by using the sulforhodamine B assay according to Monks et al., (J. Natl. Cancer, 1991, 11: 757–766). The survival of treated cells was calculated for the various drug concentrations as percentage of the survival of control cells. The antiproliferative activity of 4-oxo-4-HPR and 4-HPR in each cell line, was tested in three separate experiments and the average values ±SD are reported in FIGS. 2, 3, and 4.

SKOV-3 = test: Growth inhibition (sulforhodamine B assay); format: cell-based; conditions: Homo sapiens, read-out: 50% Inhibitory Concentrations (IC50) at 72 h
Protocol: as §1, §2, §3

BT-20 = test: Growth inhibition (sulforhodamine B assay), single agents and combination; format: cell-based, human
Protocol: as §2, §3
(§4) The antiproliferative effect of the combination of the two drugs, administered at one single dose, was also tested in other ovarian carcinoma cell lines and in breast tumor cell lines. The type of interaction between 4-HPR and 4-oxo-4-HPR was assessed by the method of Drevinko et al., as described in Cancer Biochem. Biophys., 1976, 1:187–195. For this evaluation the drugs were assumed to provide independent effects. The combination index (CI) was calculated as follows: survival fraction (SF) of the combination of 4-HPR+4-oxo-4-HPR divided by (SF 4-HPR×SF 4-oxo-4-HPR). The results for CI are defined as follows: CI=1 indicates an additive effect, CI<1 indicates a supra-additive effect and CI>1 indicates a sub-additive effect.

MCF-7 = test: as above; format: cell-based, human; conditions: for pIC50: Homo sapiens, read-out: 50% Inhibitory Concentrations (IC50) at 72 h; for Survival (% control cells): single agent 1 μM
Protocol: as §2, §3, §4

T-47D = test: as above; format: cell-based, human; conditions: for pIC50: Homo sapiens, T47D, read-out: 50% Inhibitory Concentrations (IC50) at 72 h; for pIC50 / Survival (% control cells): 72 h; for Survival (% control cells): single agent 1 μM
Protocol: as §2, §3, §4

GI-LI-N = test: Growth inhibition (sulforhodamine B assay); format: cell-based, human; conditions: for pIC50: Homo sapiens, 72 h, read-out: 50% Inhibitory Concentrations (IC50) at 72 h
Protocol: as §2, §3

A2780/HPR = test: Apoptosis induction (Cell Death Detection ELISA, DNA fragmentation); format: cell-based, human; conditions: 5 μM, 24 hr
Protocol: Although the mechanism of action of 4-HPR is not well understood, its tumor growth inhibitory effects have been attributed to apoptosis induction (Supino et al., Int. J. Cancer, 1996, 65:491–497). The apoptosis inducing effects of 4-oxo-4-HPR were compared with those of 4-HPR in the human ovarian carcinoma cell line A2780 and in its counterpart A2780/HPR, with induced resistance to 4-HPR. Apoptosis was evaluated by a Cell Death Detection ELISA Plus Assay Kit (Roche Diagnostic GmbH, Germany) according to the manufacturer's instructions. This assay quantitates the amount of cytoplasmic histone-associated DNA fragments which increases during apoptosis. Cells were seeded in 96-well cell culture plates and treated the day after with 5 μM 4-oxo-4-HPR or 4-HPR for 24 hr.

CC1=C(/C=C/C(C)=C/C=C/C(C)=C/C(=O)Nc2ccc(O)cc2)C(C)(C)CCC1 [4-HPR, N-(4-hydroxyphenyl)retinamide, reference compound]
pIC50 (A2780; A2780, 72 h, calculated from graphs): 5.82
pIC50 (OAW42; OAW-42, OAW42, 72 h): 5.00
pIC50 (SKOV-3; SK-OV-3, SKOV-3, 72 h): 5.10
Survival (% control cells) (BT-20; BT-20; single agent 1 μM; 72 h): 89 % control cells
pIC50 (BT-20; Homo sapiens; BT-20; 72 h; read-out: 50% Inhibitory Concentrations (IC50) at 72 h): 5.15
pIC50 (MCF-7; MCF7, MCF-7, 72 h): 5.52
Survival (% control cells) (MCF-7; MCF-7, 72 h): 86 % control cells
pIC50 (T-47D; T-47D): 5.40
Survival (% control cells) (T-47D; T-47D): 90 % control cells
pIC50 (GI-LI-N; GI-LI-N): 6.15
induction of apoptosis (DNA fragmentation, fold versus control cells) (A2780/HPR): had no effect

CC1=C(/C=C/C(C)=C/C=C/C(C)=C/C(=O)Nc2ccc(O)cc2)C(C)(C)CCC1=O [4-oxo-4-HPR, 4-oxo-N-(4-hydroxyphenyl)retinamide]
pIC50 (A2780; A2780, 72 h): 6.22
pIC50 (OAW42; OAW-42, 72 h): 5.52
pIC50 (SKOV-3; SK-OV-3, 72 h): 5.70
tumor cell survival (FIG. 3), compared with 4-HPR, in words (BT-20; BT-20; 72 hr): more potent than 4-HPR
Survival (% control cells) (BT-20; BT-20; single agent 1 μM; 72 h): 70 % control cells
pIC50 (BT-20; Homo sapiens, BT-20, 72 h, read-out: 50% Inhibitory Concentrations (IC50) at 72 h): 5.70
pIC50 (MCF-7; MCF7, 72 h): 5.82
tumor cell survival (FIG. 3), compared with 4-HPR, in words (MCF-7; MCF-7, 72 hr): more potent than 4-HPR
Survival (% control cells) (MCF-7; MCF-7, 72 h): 56 % control cells
pIC50 (T-47D): 5.60
tumor cell survival (FIG. 3), compared with 4-HPR, in words (T-47D; T-47D, 72 hr): similarly effective
Survival (% control cells) (T-47D; T-47D): 94 % control cells
cell sensitivity (FIG. 4), compared with 4-HPR, in words (GI-LI-N; GI-LI-N, 72 hr): equally sensitive
pIC50 (GI-LI-N): 6.22
induction of apoptosis (DNA fragmentation, fold versus control cells) (A2780/HPR): induced apoptosis

— patent publication US7169813B2, “4-oxo-fenretinide, administered alone and in combination with fenretinide, as preventive and therapeutic agent for cancer” (Fondazione IRCCS “Istituto Nazionale Dei Tumori”, priority 2004, dated 2007)
